# Source: the NIST ThermoML archive (doi:10.1021/je500092v)
# Several values for one entry are separate records, joined by “and”; a condition that tells them apart may be missing. Identical values can stand only once. ± gives the expanded uncertainty stated by the source.
# Key:
# [1] = Liquid, Ebulliometric method (Recirculating still)
# [2] = refractive index (Na D-line) (dimensionless); conditions: 293.15 K; 101.33 kPa; Liquid; Standard Abbe refractometry
Compound,vapor or sublimation pressure ([1]; 313.15 K),vapor or sublimation pressure ([1]; 335.15 K),vapor or sublimation pressure ([1]; 343.15 K),vapor or sublimation pressure ([1]; 363.15 K),vapor or sublimation pressure ([1]; 380.15 K),vapor or sublimation pressure ([1]; 399.53 K),vapor or sublimation pressure ([1]; 425.91 K),vapor or sublimation pressure ([1]; 448.97 K),refractive index [2],vapor or sublimation pressure ([1]; 337.8 K),vapor or sublimation pressure ([1]; 355.78 K),vapor or sublimation pressure ([1]; 371.94 K)
CN1CCCC1=O [N-methylpyrrolidone],0.13 ± 0.13 kPa,0.51 ± 0.13 kPa,0.79 ± 0.26 kPa,2.18 ± 0.26 kPa and 2.17 ± 0.26 kPa,4.98 ± 0.27 kPa,10 ± 0.34 kPa,25 ± 0.61 kPa,50 ± 1.1 kPa,1.4703 ± 0.0004,–,–,–
C=CCCCC [hex-1-ene],45.01 ± 0.48 kPa,96.56 ± 0.7 kPa,–,218.59 ± 1.2 kPa,–,–,–,–,1.3838 ± 0.0004,–,–,–
CCCCO [butan-1-ol],–,–,–,–,–,–,–,–,1.3992 ± 0.0004,10 ± 0.23 kPa,25 ± 0.44 kPa,50 ± 0.78 kPa
